From BindingDB's records for doi:10.1002/cbic.200400135 (Max Planck Institute for Coal Research, 2004)

What was measured:
Assay in all cases: Phosphatase Inhibition Assay
[1] = biological target: T1, Tyrosine-protein phosphatase non-receptor type 1 (Homo sapiens, UniProt P18031); conditions: pH 7.2; 37 °C
T1 sequence (P18031 whole entry): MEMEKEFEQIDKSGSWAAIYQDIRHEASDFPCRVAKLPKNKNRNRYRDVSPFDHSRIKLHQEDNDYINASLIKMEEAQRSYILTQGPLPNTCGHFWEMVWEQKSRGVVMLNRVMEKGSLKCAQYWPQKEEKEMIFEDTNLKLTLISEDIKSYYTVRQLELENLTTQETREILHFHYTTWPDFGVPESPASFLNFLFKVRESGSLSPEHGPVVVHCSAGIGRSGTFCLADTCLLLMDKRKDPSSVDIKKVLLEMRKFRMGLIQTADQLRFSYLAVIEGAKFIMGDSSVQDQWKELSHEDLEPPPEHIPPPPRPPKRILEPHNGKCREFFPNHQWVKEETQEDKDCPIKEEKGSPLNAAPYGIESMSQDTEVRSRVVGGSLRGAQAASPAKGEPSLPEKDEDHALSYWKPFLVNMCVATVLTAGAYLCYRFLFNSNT

[2] = biological target: Dual specificity protein phosphatase 3 (Homo sapiens, UniProt P51452); conditions: pH 6.5; 37 °C
Sequence of Dual specificity protein phosphatase 3 (P51452 whole entry): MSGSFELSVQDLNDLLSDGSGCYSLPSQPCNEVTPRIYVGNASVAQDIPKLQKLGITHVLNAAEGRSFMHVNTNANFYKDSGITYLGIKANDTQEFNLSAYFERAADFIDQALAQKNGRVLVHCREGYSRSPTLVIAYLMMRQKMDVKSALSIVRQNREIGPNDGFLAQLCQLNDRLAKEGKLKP

[3] = biological target: T2, M-phase inducer phosphatase 1 (Homo sapiens, UniProt P30304); conditions: pH 8; 37 °C
T2 sequence (P30304 whole entry): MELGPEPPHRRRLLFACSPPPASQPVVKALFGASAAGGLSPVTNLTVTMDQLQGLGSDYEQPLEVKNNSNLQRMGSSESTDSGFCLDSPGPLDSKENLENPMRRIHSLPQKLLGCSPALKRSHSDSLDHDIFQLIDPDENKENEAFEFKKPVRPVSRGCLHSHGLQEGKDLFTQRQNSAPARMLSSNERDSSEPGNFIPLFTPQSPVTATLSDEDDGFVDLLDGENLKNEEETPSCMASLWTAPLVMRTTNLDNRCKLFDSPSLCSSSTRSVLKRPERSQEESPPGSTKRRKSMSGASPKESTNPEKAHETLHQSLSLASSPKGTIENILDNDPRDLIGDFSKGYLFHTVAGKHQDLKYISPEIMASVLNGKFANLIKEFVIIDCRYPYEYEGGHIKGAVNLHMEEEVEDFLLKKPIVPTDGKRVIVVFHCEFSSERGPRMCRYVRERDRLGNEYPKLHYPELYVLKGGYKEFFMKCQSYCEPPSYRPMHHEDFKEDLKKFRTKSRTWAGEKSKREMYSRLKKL

In the case of COc1cc(-c2[nH]ccc2Cl)oc1C1=c2[nH]c3cc2[C@H](C(C)C)[C@H]1CCCCCCCC=3, the IC50 [1] is reported as 38 µM, the IC50 [2] is reported as 32 µM and the IC50 [3] is reported as 28 µM.

For C/C(=C1\C=CC=N1)c1ccc(-c2ccc[nH]2)o1, the IC50 [2] was 4.9 µM and the IC50 [3] was 40 µM.

C/C(=C1\C=CC=N1)c1ccc(-c2[nH]ccc2Cl)o1 [3-chloro-2-(5-{1-[(2Z)-2H-pyrrol-2-ylidene]ethyl}furan-2-yl)-1H-pyrrole, 4] gave an IC50 [1] of 6 µM, an IC50 [2] of 9 µM and an IC50 [3] of 34 µM.

In the case of C=CCCCCc1ccc(/C=C2\N=C(c3ccc(CCCC=C)[nH]3)C=C2OC)[nH]1 [Acyclic analogue, 10], the IC50 [1] is reported as > 50 µM, the IC50 [2] is reported as > 50 µM and the IC50 [3] is reported as > 50 µM.

C=CCCCCc1ccc(C=C2N=C(c3ccc(C(=O)CCC=C)[nH]3)C=C2OC)[nH]1 [Acyclic analogue, 11] was tested, and the IC50 [1] was 32 µM, the IC50 [2] was > 50 µM and the IC50 [3] was > 50 µM.

In the case of C=CC/C=C(/C)c1ccc(C2=N/C(=C\c3ccc(CCCCC=C)[nH]3)C(OC)=C2)[nH]1 [Acyclic analogue, 12], the IC50 [1] is reported as 12 µM, the IC50 [2] is reported as 9 µM and the IC50 [3] is reported as > 50 µM.

C=CCCCCc1ccc(/C=C2\N=C(c3ccc[nH]3)C=C2OC)[nH]1 [Acyclic analogue, 13] was tested, and the IC50 [1] was 11 µM, the IC50 [2] was 11 µM and the IC50 [3] was > 50 µM.

In the case of CCc1ccc(/C=C2\N=C(c3ccc[nH]3)C=C2OC)[nH]1 [Acyclic analogue, 14], the IC50 [1] is reported as 10 µM, the IC50 [2] is reported as 21 µM and the IC50 [3] is reported as > 50 µM.

For C=CCCCCc1ccc(/C=C2\N=C(c3ccc(CCCC=C)s3)C=C2OC)[nH]1 [Acyclic analogue, 15], the IC50 [1] was 28 µM, the IC50 [2] was 39 µM and the IC50 [3] was > 50 µM.

With C=CCCCCc1ccc(/C=C2\NC(=O)C=C2OC)[nH]1 [Acyclic analogue, 16] the IC50 [1] was 46 µM, the IC50 [2] was 8 µM and the IC50 [3] was > 50 µM.

CCc1ccc(/C=C2\NC(=O)C=C2OC)[nH]1 [Acyclic analogue, 17] was tested, and the IC50 [1] was > 50 µM, the IC50 [2] was > 50 µM and the IC50 [3] was > 50 µM.

COC1=CC(=O)N/C1=C\c1ccc(CCCC/C=C/CCCCC(=O)O)[nH]1 [Acyclic analogue, 18] was tested, and the IC50 [1] was 16 µM, the IC50 [2] was 21 µM and the IC50 [3] was > 50 µM.

In the case of COC1=CC2=N/C1=C\c1ccc([nH]1)CCCC/C=C/CCCC1=CC=C2O1 [Cyclic analogue, 7], the IC50 [1] is reported as 23 µM, the IC50 [2] is reported as 28 µM and the IC50 [3] is reported as > 50 µM.

For COC1=CC2=N/C1=C\c1ccc([nH]1)CCCC/C=C/CCCCCCCCCCC1=CC=C2O1 [Cyclic analogue, 8], the IC50 [1] was 24 µM, the IC50 [2] was 41 µM and the IC50 [3] was > 50 µM.

COC1=CC2=N/C1=C\c1ccc([nH]1)CCCC/C=C/CCCc1cccc2c1 [Cyclic analogue, 9] was tested, and the IC50 [1] was > 50 µM, the IC50 [2] was 30 µM and the IC50 [3] was > 50 µM.

In the case of CC(C)[C@H]1c2cc3[nH]c2=C(c2ccc(-c4ccc[nH]4)o2)[C@@H]1CCCCCCCC=3 [Roseophilin analogue, 3], the IC50 [1] is reported as 10 µM, the IC50 [2] is reported as 15 µM and the IC50 [3] is reported as > 50 µM.

With COc1cc(-c2[nH]ccc2Cl)oc1C1=c2[nH]c3cc2[C@@H](C(C)C)[C@@H]1CCCCCCCC=3 [Roseophilin, 2] the IC50 [1] was 6 µM, the IC50 [2] was 6 µM and the IC50 [3] was 21 µM.
